Experiment [1] in a line: Concentration-dependent survival of SW480 colon cancer line, luminescence detection with CellTiter-Glo, half-maximal inhibitory concentration (AID 1117338). The experiment is classed as functional.
Experiment [2] is described as follows: CellTiter-Glo luminescent dose response of DLD-1 viability loss (AID 1117352). The experiment is classed as functional. On the technique in general: In ATP-based viability assays light output follows the ATP content of the culture.
The nature of experiment [3]: cytotoxicity toward Colo320 cells – cell-based, CellTiter-Glo luminescence, IC50, dose response (AID 1117334). The class given is functional. The note with it: COLO 320.
The target in experiment [4] is Heat shock protein HSP 90-alpha (Homo sapiens, UniProt P07900). The experiment is classed as functional, organism-based.
A short description of experiment [5]: SNU-C1 cell viability reduction, dose response, CellTiter-Glo luminescence (AID 1117323). The class given is functional, cell-based.
The target in experiment [6] is HSP90 (Plasmodium falciparum 3D7, UniProt Q8IL32). The experiment is classed as functional, organism-based.
A short description of experiment [7]: HCT116 cell viability decrease, GSK3B pretreatment – CellTiter-Glo, IC50, dose response (AID 1117339). The class given is functional. The note with it: HCT-116.
The nature of experiment [8]: RKO cell viability reduction, dose response, CellTiter-Glo luminescence (AID 1117322). The class given is functional.
Experiment [9] in a line: cytotoxicity toward HCT116 cells – cell-based, CellTiter-Glo luminescence, IC50, dose response (AID 1117332). The experiment is classed as functional. Particulars: HCT-116.
A short description of experiment [10]: cytotoxicity toward HT-29 cells – cell-based, CellTiter-Glo luminescence, IC50, dose response (AID 1117330). The class given is functional.
The test system of experiment [11] is Vero. Kind of experiment: cells. The class given is functional. Particulars: Chlorocebus sabaeus.
In experiment [12] the test system is Vero. Kind of experiment: cells. The class given is functional, cell-based. The note with it: Chlorocebus sabaeus.
A short description of experiment [13]: A549 cell cytotoxicity, dose response, cytotoxicity control, cherry-picks, 26 µM top dose (AID 1053119). The class given is functional, cell-based.
Experiment [14] in a line: fibronectin fibrillogenesis inhibitors in fibroblasts, dose response, AH1F cells, Alexa488-fibronectin fluorescence, cherry-pick, set 2 (AID 1117283). The experiment is classed as functional, cell-based.
Experiment [15] can be described thus: HepG2 cell cytotoxicity, dose response, cytotoxicity control, cherry-picks, set 5 (AID 1053118). The class given is functional, cell-based.
The target in experiment [16] is T1, Endoplasmic reticulum aminopeptidase 1 (Homo sapiens, UniProt Q9NZ08). The experiment can be described thus: ERAP1 enzyme inhibitors, dose response, biochemical, fluorescence plate reader, dry powder (AID 1117292). The experiment is classed as functional.
The target in experiment [17] is T1, Endoplasmic reticulum aminopeptidase 1. Kind of experiment: ERAP1 aminopeptidase inhibitors, dose response, biochemical, cherry-pick, set 2, plate reader (AID 743314).

SMILES strings stand for the structures. Active and inactive are the calls of the source.

T1 sequence (Q9NZ08 whole entry): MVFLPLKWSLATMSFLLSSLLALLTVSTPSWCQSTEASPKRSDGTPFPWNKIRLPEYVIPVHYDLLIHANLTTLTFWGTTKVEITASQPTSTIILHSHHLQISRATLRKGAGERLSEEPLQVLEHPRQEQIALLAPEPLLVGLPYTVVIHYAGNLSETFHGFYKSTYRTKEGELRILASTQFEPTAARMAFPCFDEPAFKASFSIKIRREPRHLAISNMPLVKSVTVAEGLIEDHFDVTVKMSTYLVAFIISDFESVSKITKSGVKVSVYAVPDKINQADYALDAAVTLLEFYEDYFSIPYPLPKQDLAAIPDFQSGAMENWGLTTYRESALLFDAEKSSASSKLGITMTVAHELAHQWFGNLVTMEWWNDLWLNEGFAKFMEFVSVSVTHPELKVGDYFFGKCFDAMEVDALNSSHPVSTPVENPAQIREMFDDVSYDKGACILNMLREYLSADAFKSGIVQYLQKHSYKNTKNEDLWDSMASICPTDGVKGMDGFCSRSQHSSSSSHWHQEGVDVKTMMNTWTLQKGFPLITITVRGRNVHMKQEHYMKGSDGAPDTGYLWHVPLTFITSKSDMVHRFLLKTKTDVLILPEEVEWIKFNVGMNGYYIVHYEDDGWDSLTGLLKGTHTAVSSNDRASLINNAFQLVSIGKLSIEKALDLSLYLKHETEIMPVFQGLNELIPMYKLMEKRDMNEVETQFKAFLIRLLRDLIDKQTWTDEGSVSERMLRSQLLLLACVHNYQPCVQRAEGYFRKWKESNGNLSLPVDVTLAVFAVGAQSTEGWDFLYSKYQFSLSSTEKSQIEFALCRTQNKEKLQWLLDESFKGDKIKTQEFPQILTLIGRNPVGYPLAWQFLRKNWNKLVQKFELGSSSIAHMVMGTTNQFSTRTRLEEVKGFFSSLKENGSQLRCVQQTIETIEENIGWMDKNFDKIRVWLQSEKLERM
Chain of HSP90 (Q8IL32 whole entry): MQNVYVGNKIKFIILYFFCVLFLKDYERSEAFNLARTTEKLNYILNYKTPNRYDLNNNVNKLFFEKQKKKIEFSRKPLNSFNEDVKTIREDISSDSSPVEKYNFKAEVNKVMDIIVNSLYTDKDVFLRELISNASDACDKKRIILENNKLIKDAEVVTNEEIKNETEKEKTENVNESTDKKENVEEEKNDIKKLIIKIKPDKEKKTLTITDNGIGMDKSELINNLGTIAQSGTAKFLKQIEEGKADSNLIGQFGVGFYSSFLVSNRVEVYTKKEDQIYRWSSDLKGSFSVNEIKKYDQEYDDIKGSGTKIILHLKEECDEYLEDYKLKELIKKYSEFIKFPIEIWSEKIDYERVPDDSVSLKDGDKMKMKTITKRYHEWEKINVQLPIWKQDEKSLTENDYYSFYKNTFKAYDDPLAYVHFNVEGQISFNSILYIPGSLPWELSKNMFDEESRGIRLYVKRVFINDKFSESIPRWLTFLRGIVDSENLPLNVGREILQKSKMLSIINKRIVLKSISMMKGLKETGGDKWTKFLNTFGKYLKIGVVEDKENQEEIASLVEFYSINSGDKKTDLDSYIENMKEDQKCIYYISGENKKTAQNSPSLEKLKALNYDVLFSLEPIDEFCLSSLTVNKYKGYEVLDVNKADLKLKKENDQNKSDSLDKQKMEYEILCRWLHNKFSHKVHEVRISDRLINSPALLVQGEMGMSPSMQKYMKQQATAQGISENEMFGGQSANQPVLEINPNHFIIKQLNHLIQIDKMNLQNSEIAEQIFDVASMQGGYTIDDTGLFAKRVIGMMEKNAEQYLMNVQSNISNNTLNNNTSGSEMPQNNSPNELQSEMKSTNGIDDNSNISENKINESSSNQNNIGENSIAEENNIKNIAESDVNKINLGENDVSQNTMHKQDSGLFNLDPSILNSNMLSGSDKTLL

One may read the IC50 as the concentration that gives 50% inhibition. The AC50 is the concentration at which the activity in the assay is half-maximal. The term CC50 denotes the concentration that lowers cell viability or growth by half. For `Oc1c(Br)cc(Br)c2cccnc12` [BROXYQUINOLINE], the half-maximal inhibitory concentration (IC50) in experiment [1] was 132 nM (active); in experiment [2], 157 nM (active); in [3] it was 114 nM (active); in [5] it was 366 nM (active); in [7] it was 183 nM (active); in experiment [8], 163 nM (active). For the same molecule, the values for the half-inhibitory concentration (IC50) in experiment [9], in [10] and in [12] were 193 nM (active), 5250 nM (inactive) and > 25000 nM (active), respectively. For the same molecule, the AC50 in [4] is 700 nM (active); in [6], 373 nM (active). Besides, the CC50 in experiment [11] is 18700 nM (active).

`O=C(c1cccnc1)N1C[C@@H]2[C@H](c3ccccc31)[C@H](CO)N2CC1CCCC1`: the AC50 was > 47000 nM (inactive) in experiment [13], > 60000 nM (inactive) in experiment [14] and > 47000 nM (inactive) in [15].

On to `N=C(NCCc1c[nH]c2ccccc12)NS(=O)(=O)c1cc(F)ccc1F`, for which the figures for the AC50 in experiment [16] and in experiment [17] were 59900 nM (active) and 6090 nM (active), respectively.

These data come from ChEMBL document CHEMBL1201862, “PubChem BioAssay data set” (2004).
